Earlier results on 1 compound are cited in patent US20180214382A1, “EDIBLE COMPOSITION COMPRISING A POLYSACCHARIDE AND A LIPID” (PERORA GMBH, priority 2015, published 2018).

The structures appear in SMILES notation.

For the series the following is noted: rat feeding study; independent from intake.

For `CCCCCCCCCCCCCCCCCC(=O)OCC(COC(=O)CCCCCCCCCCCCCCCCC)OC(=O)CCCCCCCCCCCCCCCCC` [tristearin], the “true digestibility of stearic acid from tristearin” value is listed as 0.15 g/g.
